Laboratory results as given in PubChem BioAssay AID1963966 (Molecular Pharmacology Branch, DTP, NCI, 2024).
pIC50: −log10 of the molar value.

System: 935938-334-R-J1-PDC spheroids with HUVEC/MSC, viability
Assay: Anticancer human tumor 935938-334-R-J1-PDC patient-derived small intestine adenocarcinoma cell line growth inhibition [PI3K]
Conditions: for pIC50: curve of first compound; for viability, T/C: stronger effect = lower value
Source text: Combinatorial screen of targeted agents with the PI3K inhibitors inavolisib, alpelisib, duvelisib, and copanlisib in multi-cell type tumor spheroids
A high-throughput screen of multi-cell type tumor spheroids was designed to identify active combinations of targeted small molecules and PI3K pathway inhibitors. Complex spheroids include a stromal component modeled by human endothelial cells (HUVEC) and fibroblasts modeled by human mesenchymal stem cells (MSCs). The concentration ranges selected for each drug and investigational agent were based upon clinically achievable concentrations if the clinical Cmax of the agent was known.
Compounds. The drugs and investigational agents: inavolisib (NSC800729), alpelisib (NSC765974), duvelisib (NSC772469), copanlisib (NSC816437), ipatasertib (NSC767898), afuresertib (NSC778305), talazoparib (NSC767125), sapanisertib (NSC764658), selumetinib (NSC741078), tovorafenib (DAY101, NSC766906), vemurafenib (NSC761431), ravoxertinib (NSC781343), sotorasib (NSC818433), MRTX1133 (NSC 836407), abemaciclib (NSC 768073), palbociclib (NSC758247), venetoclax (NSC 766270), SY5609 (NSC837396), enzalutamide (NSC755605), and darolutamide (NSC825331), were obtained from the National Cancer Institute (NCI) Developmental Therapeutics Program Chemical Repository. The FDA-approved anticancer drug set is available from the NCI Developmental Therapeutics Program. […] The stock solutions were prepared in dimethyl sulfoxide (DMSO, Sigma-Aldrich, St. Louis, MO, cat. D2650) at 800-fold the tested concentration and stored at -70 degrees C prior to their use. All drugs and investigational agents were tested over a range starting from a high concentration at or near the clinical Cmax and decreasing in half-log increments. If the clinical Cmax for an agent had not been determined, the highest concentration tested was 10 microM.
Cell Culture. All cells were maintained in an incubator at 37 degrees C and 5% CO2 with 95% humidity. The PDC lines were cultured according to standard operating procedures established by the NCI PDMR (https://pdmr.cancer.gov/sops/default.htm). All PDCs were thawed and cultured in Matrigel-coated flasks prepared with a working solution of 1X Ham's F-12 nutrient mix, without supplementation (Invitrogen, Waltham, MA, cat. 11765054), 100 U/mL penicillin-streptomycin (Invitrogen, cat. 15140122), and 2.5% Matrigel (Corning Inc., Corning, NY, cat. 354248) for the first three passages. The 354836-022-R-J1-PDC, 475296-252-R-J1-PDC, and 997726-040-R-J2-PDC lines were cultured in 6A media, which includes advanced DMEM/F-12 (Thermo Fisher Scientific, cat. 12634028), 10 mM HEPES (Thermo Fisher Scientific, cat. 15630080), 1X GlutaMAX supplement (Thermo Fisher Scientific, cat. 35050061), 0.1 mg/mL primocin (InvivoGen, San Diego, CA, cat. ant-pm-2), 10% defined fetal bovine serum, heat inactivated (HyClone Laboratories Inc., Logan, UT, cat. SH30070.03HI), 50% L-WRN conditioned media (ATCC, cat. CRL-3276), 1.25 mM N-Acetyl-L-cysteine (Sigma-Aldrich, cat. A9165), 10 mM nicotinamide (Sigma-Aldrich, cat. N0636), 1X B-27 supplement (Thermo Fisher Scientific, cat. 17504044), 1X N-2 supplement (Thermo Fisher Scientific, cat. 17502048), and 10 microM Y-27632 dihydrochloride (Tocris Bioscience, Bristol, United Kingdom, cat. 1254). The 624824-186-R-J2-PDC line was cultured in 6C/Colon 1B media, which includes all 6A media components plus 50 ng/mL human EGF recombinant protein (Thermo Fisher Scientific, cat. PHG0311). […]

[1] = second compound 0.0316 µM, first compound 0.0316 µM
[2] = second compound 0.0316 µM, first compound 0.1 µM
[3] = second compound 0.0316 µM, first compound 0.316 µM
[4] = second compound 0.0316 µM, first compound 1 µM
[5] = second compound 0.0316 µM, first compound 3.16 µM
[6] = second compound 0.0316 µM, first compound 10 µM
[7] = second compound 0.1 µM, first compound 0.0316 µM
[8] = second compound 0.1 µM, first compound 0.1 µM
[9] = second compound 0.1 µM, first compound 0.316 µM
[10] = second compound 0.1 µM, first compound 1 µM
[11] = second compound 0.1 µM, first compound 3.16 µM
[12] = second compound 0.1 µM, first compound 10 µM
[13] = second compound 0.316 µM, first compound 0.0316 µM
[14] = second compound 0.316 µM, first compound 0.1 µM
[15] = second compound 0.316 µM, first compound 0.316 µM
[16] = second compound 0.316 µM, first compound 1 µM
[17] = second compound 0.316 µM, first compound 3.16 µM
[18] = second compound 0.316 µM, first compound 10 µM
[19] = second compound 1 µM, first compound 0.0316 µM
[20] = second compound 1 µM, first compound 0.1 µM
[21] = second compound 1 µM, first compound 0.316 µM
[22] = second compound 1 µM, first compound 1 µM
[23] = second compound 1 µM, first compound 3.16 µM
[24] = second compound 1 µM, first compound 10 µM
[25] = second compound 3.16 µM, first compound 0.0316 µM
[26] = second compound 3.16 µM, first compound 0.1 µM
[27] = second compound 3.16 µM, first compound 0.316 µM
[28] = second compound 3.16 µM, first compound 1 µM
[29] = second compound 3.16 µM, first compound 3.16 µM
[30] = second compound 3.16 µM, first compound 10 µM
[31] = second compound 10 µM, first compound 0.0316 µM
[32] = second compound 10 µM, first compound 0.1 µM
[33] = second compound 10 µM, first compound 0.316 µM
[34] = second compound 10 µM, first compound 1 µM
[35] = second compound 10 µM, first compound 3.16 µM
[36] = second compound 10 µM, first compound 10 µM
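Note: compound exposure lasted seven days before viability was read.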
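Throughout, for viability, T/C: percent of vehicle DMSO treated spheroid viability so 100% = untreated.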

## C=CC(=O)N1CCN(c2nc(=O)n(-c3c(C)ccnc3C(C)C)c3nc(-c4c(O)cccc4F)c(F)cc23)C(C)C1 (stereo unspecified) + CC(Nc1ncnc2nc[nH]c12)c1cc2cccc(Cl)c2c(=O)n1-c1ccccc1
Second compound 0.0316 µM
  pIC50: < 5.00
Second compound 0.1 µM
  pIC50: < 5.00
Second compound 0.316 µM
  pIC50: < 5.00
Second compound 1 µM
  pIC50: < 5.00
Second compound 3.16 µM
  pIC50: < 5.00
Second compound 10 µM
  pIC50: < 5.00
[1]
  viability, T/C: 94.2%
[2]
  viability, T/C: 103%
[3]
  viability, T/C: 96.4%
[4]
  viability, T/C: 84.3%
[5]
  viability, T/C: 83.9%
[6]
  viability, T/C: 95.8%
[7]
  viability, T/C: 105%
[8]
  viability, T/C: 123%
[9]
  viability, T/C: 96.8%
[10]
  viability, T/C: 120%
[11]
  viability, T/C: 114%
[12]
  viability, T/C: 108%
[13]
  viability, T/C: 86%
[14]
  viability, T/C: 88.7%
[15]
  viability, T/C: 88.3%
[16]
  viability, T/C: 95.7%
[17]
  viability, T/C: 98.2%
[18]
  viability, T/C: 87.6%
[19]
  viability, T/C: 96.7%
[20]
  viability, T/C: 106%
[21]
  viability, T/C: 64%
[22]
  viability, T/C: 94.8%
[23]
  viability, T/C: 73.4%
[24]
  viability, T/C: 68.9%
[25]
  viability, T/C: 71.3%
[26]
  viability, T/C: 84.3%
[27]
  viability, T/C: 89.5%
[28]
  viability, T/C: 85.1%
[29]
  viability, T/C: 95%
[30]
  viability, T/C: 72.2%
[31]
  viability, T/C: 62.1%
[32]
  viability, T/C: 99.5%
[33]
  viability, T/C: 96.8%
[34]
  viability, T/C: 84.5%
[35]
  viability, T/C: 75.5%
[36]
  viability, T/C: 68.8%

## C=CC(=O)N1CCN(c2nc(=O)n(-c3c(C)ccnc3C(C)C)c3nc(-c4c(O)cccc4F)c(F)cc23)C(C)C1 (stereo unspecified) + COc1c(OCCCN2CCOCC2)ccc2c3n(c(=NC(=O)c4cnc(N)nc4)nc12)CCN3
Second compound 0.00316 µM
  pIC50: < 5.00
Second compound 0.01 µM
  pIC50: < 5.00
Second compound 0.0316 µM
  pIC50: < 5.00
Second compound 0.1 µM
  pIC50: 5.62
Second compound 0.316 µM
  pIC50: > 7.50
Second compound 1 µM
  pIC50: > 7.50
Second compound 0.00316 µM, first compound 0.0316 µM
  viability, T/C: 94%
Second compound 0.00316 µM, first compound 0.1 µM
  viability, T/C: 108%
Second compound 0.00316 µM, first compound 0.316 µM
  viability, T/C: 93.9%
Second compound 0.00316 µM, first compound 1 µM
  viability, T/C: 91%
Second compound 0.00316 µM, first compound 3.16 µM
  viability, T/C: 104%
Second compound 0.00316 µM, first compound 10 µM
  viability, T/C: 109%
Second compound 0.01 µM, first compound 0.0316 µM
  viability, T/C: 100%
Second compound 0.01 µM, first compound 0.1 µM
  viability, T/C: 96%
Second compound 0.01 µM, first compound 0.316 µM
  viability, T/C: 92.5%
Second compound 0.01 µM, first compound 1 µM
  viability, T/C: 94.9%
Second compound 0.01 µM, first compound 3.16 µM
  viability, T/C: 102%
Second compound 0.01 µM, first compound 10 µM
  viability, T/C: 93.2%
[1]
  viability, T/C: 93.1%
[2]
  viability, T/C: 83.5%
[3]
  viability, T/C: 86.7%
[4]
  viability, T/C: 71.7%
[5]
  viability, T/C: 82.7%
[6]
  viability, T/C: 65.9%
[7]
  viability, T/C: 56.9%
[8]
  viability, T/C: 47.5%
[9]
  viability, T/C: 61.2%
[10]
  viability, T/C: 49.3%
[11]
  viability, T/C: 67%
[12]
  viability, T/C: 33%
[13]
  viability, T/C: 32.7%
[14]
  viability, T/C: 31.7%
[15]
  viability, T/C: 34.5%
[16]
  viability, T/C: 34.7%
[17]
  viability, T/C: 28.1%
[18]
  viability, T/C: 32.9%
[19]
  viability, T/C: 29.3%
[20]
  viability, T/C: 38.8%
[21]
  viability, T/C: 38.5%
[22]
  viability, T/C: 33%
[23]
  viability, T/C: 32.5%
[24]
  viability, T/C: 44.1%

## Cn1nccc1Nc1nccc(-c2ccn(C(CO)c3ccc(Cl)c(F)c3)c(=O)c2)n1 (stereo unspecified) + CC(Nc1ncnc2nc[nH]c12)c1cc2cccc(Cl)c2c(=O)n1-c1ccccc1
Second compound 0.0316 µM
  pIC50: 6.12
Second compound 0.1 µM
  pIC50: 5.84
Second compound 0.316 µM
  pIC50: 5.89
Second compound 1 µM
  pIC50: 5.89
Second compound 3.16 µM
  pIC50: 6.28
Second compound 10 µM
  pIC50: 6.84
[1]
  viability, T/C: 85.2%
[2]
  viability, T/C: 79.2%
[3]
  viability, T/C: 66.3%
[4]
  viability, T/C: 46.7%
[5]
  viability, T/C: 31.1%
[6]
  viability, T/C: 38.6%
[7]
  viability, T/C: 99.6%
[8]
  viability, T/C: 91.1%
[9]
  viability, T/C: 73%
[10]
  viability, T/C: 54.4%
[11]
  viability, T/C: 41.4%
[12]
  viability, T/C: 33.6%
[13]
  viability, T/C: 87.9%
[14]
  viability, T/C: 101%
[15]
  viability, T/C: 63.2%
[16]
  viability, T/C: 56.2%
[17]
  viability, T/C: 41.1%
[18]
  viability, T/C: 28.3%
[19]
  viability, T/C: 96.2%
[20]
  viability, T/C: 81.3%
[21]
  viability, T/C: 57.1%
[22]
  viability, T/C: 61%
[23]
  viability, T/C: 39.6%
[24]
  viability, T/C: 27.9%
[25]
  viability, T/C: 74.1%
[26]
  viability, T/C: 77.8%
[27]
  viability, T/C: 55.3%
[28]
  viability, T/C: 43.1%
[29]
  viability, T/C: 32.4%
[30]
  viability, T/C: 33.6%
[31]
  viability, T/C: 63.4%
[32]
  viability, T/C: 53.5%
[33]
  viability, T/C: 43.8%
[34]
  viability, T/C: 33.6%
[35]
  viability, T/C: 32.6%
[36]
  viability, T/C: 25.3%
